Experimental data taken from article PMC5761851, “Application of a phenotypic drug discovery strategy to identify biological and chemical starting points for inhibition of TSLP production in lung epithelial cells” (PLoS ONE, 2018).
Where “and” joins values, the source holds several entries; their conditions need not be identical. Identical values can stand only once. Like-named read-outs stand apart in the source and are kept apart here.

How the values were obtained:
[1] = system: CHO-K1 cells; assay: CHO-K1 viability (ATPlite); format: cell-based
Protocol: The viability of NHBE and CHO-K1 cells was quantified using ATP as an indirect read out of the potential cytotoxicity of the compounds. […] Plates were shaken and covered with aluminium foil for 25 min. Luminescence was measured in an Envision reader (Perkin Elmer). Evaluation of viability in CHO-K1 cells was used as an internal compound cytotoxicity standard across cellular assays. […] The plates were incubated for 24 h at 37°C in 5% CO2. After the incubation period, the culture medium was removed and washed with 100 μl of DPBS. Test compounds were dissolved and serially diluted in 100% DMSO. A final 1/100 dilution of each concentration was performed using F12 culture medium with 0.5% FBS. A volume of 100 μl culture medium containing the compounds or 1% DMSO (for control wells) was added to the wells containing the cells and the plate was incubated again 24h. After 24h of compound exposure, cells were washed with DPBS. Then, 100 μl of PBS were added, followed by the addition of 100 μl of ATPlite™ reagent. The plate was shaken for 25 minutes using a microtiter plate shaker. Luminescence was measured using a Luminoskan Ascent luminometer (Thermo Fisher Scientific).
For CHO-K1 viability assays, a standard curve of cells was included in the plate. Luminescence values versus cell number were plotted and the data adjusted to a linear equation. Luminescence values of the samples were interpolated to obtain number of cells. IC50 values were obtained by non-linear regression using Activity Base software (IDBS) and a four-parameter log equation.

[2] = system: TSLP production in NHBE cells; assay: TSLP HTRF assay (TSLP production in poly I:C / IL-4 stimulated NHBE cells); format: cell-based, human; parameters: Inhibition of TSLP production in NHBE (% as indicated): concentration or dose not given beside the values
Protocol: For dose response curves determinations, stocks of test compounds at a concentration of 1.33x10^-3 M in DMSO were sequentially diluted at 1:4 dilution steps before further 1/50 dilution in BEBM medium containing 1x ITS and 0.1% BSA. For the highest 4 μM concentration test compounds were resuspended in DMSO at a concentration of 2.5x10^-3 M and diluted 1/25 in BEBM medium containing 1x ITS and 0.1% BSA before adding 1 μl to the wells containing the cells.
All subsequent steps were automated using a Sciclone® G3 workstation (Perkin Elmer) with a Twister™ II robot (Perkin Elmer). […] 1 μl of test compound solution prepared at 25x concentration was added to the wells containing NHBE cells. The plates were then incubated during 90 minutes at 37°C, 5% CO2, 90% humidity before adding poly I:C (Invivogen HMW Tirl-pic-5) and human IL-4 (Peprotech 200–04) stimulus in 4 μl of BEBM medium containing 1x ITS, 0.1% BSA and 0.1% DMSO using a Multidrop™. […] Cells were then incubated for 24h in the presence of test compounds and stimulus at 37°C, 5% CO2 and 90% humidity conditions. After the 24h incubation period the plates were transferred to a CyBi®-Well platform (CyBio AG) to collect 10 μl of the supernatants which were transferred to a new plate. TSLP levels in the supernatant were determined using a homogeneous Time-Resolved Fluorescence (HTRF) assay custom developed by Cisbio. The assay was based in the use of a donor dye (europium cryptate) coupled to a monoclonal anti-TSLP antibody and an acceptor dye (d2) coupled to a second polyclonal anti-TSLP antibody. […] 10 μl of the resulting solution was then used to determine TSLP levels as described above.
The standard curve was built with eight points prepared in ITS/BSA in BEBM medium without supplements, starting at 700 pg/ml and diluted 1:2, with medium alone being zero TSLP. Fitting model corresponded to equation 100 of Excel fit software. Data from the primary phenotypic screen was visualized using Vortex (Dotmatics). […] For compound selection the maximum inhibition of the two individual duplicate values was taken into account. Dose response confirmation was performed at single point in the 2 donors tested. 9 point curves were run starting at 4 μM concentration by doing serial 1:4 dilutions in cells derived from both donors.

[3] = system: TBK1/IKKɛ, PDK-1, Aurora B, ERK8, MARK, NUAK1, MLK, c-Kit, CDK2/CyclinE, Chk1, GSK-3β, PKA, KDR, T-Fyn and PCK; parameters: method as in PMID 19307177; settings: read-out: IC50 on BX795 targets within the pharmacological range; cited from earlier work
[4] = target: T1, mTOR (Homo sapiens, UniProt P42345); settings: read-out: reported kinase inhibitory activity (IC50); cited from earlier work
T1 construct: Eurofins Pharma Discovery Services (contract assay service)

[5] = system: TSLP mRNA levels in NHBE cells; assay: TSLP mRNA real-time PCR (qPCR) in NHBE cells; format: cell-based, human; parameters: TSLP mRNA upregulation (% versus control) / % Inhibition of mRNA: dose or concentration left out as unconfirmed; settings: for % Inhibition of mRNA at [4 μM] ± SD: NHBE donor #1, 6 h stimulation; for % Inhibition of mRNA: individual values, donor #1
[6] = Homo sapiens, NHBE, 24 h, NHBE cells donor #1, poly I:C / IL-4, 24h, geometric mean, read-out: Inhibition of TSLP protein production (IC50, μM) (95% CI)
[7] = individual values, donor #1, read-out: Inhibition of TSLP production in NHBE (IC50)

| Compound | IC50 [2, 6] [µM] | IC50 [2, 7] | % Inhibition of mRNA at [4 μM] ± SD [5] [%] | % Inhibition of mRNA [5] | other results |
| --- | --- | --- | --- | --- | --- |
| COc1ccc(-c2ccc3c(N4CCOC[C@@H]4C)nc(N4CCOC[C@@H]4C)nc3n2)cc1CO [AZD8055, reference compound] | 0.002 | 0.00097 µM and 0.00482 µM and 0.00467 µM |  |  | Inhibition of CHO viability % Inhibition ± SD at 3.12 μM [1]: 20.47% ± 4.6 (n = 4) |
| O=C(NCCCNc1nc(Nc2cccc(NC(=O)N3CCCC3)c2)ncc1I)c1cccs1 [BX795, reference compound] |  |  |  |  | IC50 [3]: < 1000 nM; IC50 ([2]; Homo sapiens, NHBE, donor #1, representative curve, read-out: IC50): 0.0591 µM; IC50 ([2]; Homo sapiens, NHBE, donor #2, representative curve, read-out: IC50): 0.079 µM; IC50 ([2]; individual values, donor #1, read-out: Inhibition of TSLP production in NHBE (IC50, mM) by BX795, Donor #1): 0.048 µM and 0.059 µM and 0.168 µM and 0.177 µM; IC50 ([2]; individual values, donor #2, read-out: Inhibition of TSLP production in NHBE (IC50, mM) by BX795, Donor #2): 0.198 µM and 0.078 µM and 0.183 µM and 0.143 µM |
| CO[C@H]1C[C@@H]2CC[C@@H](C)[C@@](O)(O2)C(=O)C(=O)N2CCCC[C@H]2C(=O)O[C@H]([C@H](C)C[C@@H]2CC[C@@H](OCCO)[C@H](OC)C2)CC(=O)[C@H](C)/C=C(\C)[C@@H](O)[C@@H](OC)C(=O)[C@H](C)C[C@H](C)/C=C/C=C/C=C/1C [Everolimus, reference compound] |  |  |  |  | Inhibition of CHO viability % Inhibition ± SD at 3.12 μM [1]: -0.16% ± 2.3 (n = 4); inhibition at 0.031 µM ([2]; Homo sapiens, 0.031 μM, NHBE donor #1, read-out: Inhibition of TSLP protein production % Inhibition ± SD at): 79.4%; Inhibition of TSLP production in NHBE (% as indicated) ([2]; individual values, donor #1): 62.23% and 73.18% and 78.84% and 103.38%; IC50 [4]: 1 to 2 nM |
| COC(=O)Nc1nc2ccc(C(=O)c3cccs3)cc2[nH]1 [Nocodazole, reference compound] | 0.9 | 1.23 µM and 0.512 µM and 1.16 µM | 84.62 ± 1.76 | 83.366% and 85.867% |  |
| C[C@@H]1O[C@@H](O[C@H]2C[C@@H](O)[C@]3(CO)[C@H]4[C@H](O)C[C@]5(C)[C@@H](C6=CC(=O)OC6)CC[C@]5(O)[C@@H]4CC[C@]3(O)C2)[C@H](O)[C@H](O)[C@H]1O [Ouabain, reference compound] | 0.016 | 0.013 µM and 0.014 µM | 94.64 ± 0.33 | 94.409% and 94.877% | IC50 ([2]; Homo sapiens, NHBE, individual values, donor #1, read-out: Inhibition of TSLP production in NHBE (IC50)): 0.022 µM |
| C[C@@H]1CCN(C(=O)CC#N)C[C@@H]1N(C)c1ncnc2[nH]ccc12 [Tofacitinib, reference compound] |  |  |  |  | Inhibition of CHO viability at [25 μM] % Inhibition ± SD ([1]; 25 μM): 0.37 ± 4.3% |
| COc1ccc(N(C)c2nc(NC/C=C(\C)CCC=C(C)C)nc3ccccc23)cc1 [compound 6] | 0.101 | 0.121 µM and 0.062 µM and 0.141 µM | 95.04 ± 0.77 | 95.589% and 94.492% |  |
